Consider seven compounds from paper PMC9110316 (Computational and Structural Biotechnology Journal, 2022).

Data set [1] can be described thus: MTT cell viability assay in A549 cells. As to conditions: human. It is filed as cell-based.
Data set [2] addresses CTSL protein prepared from human liver tissue (Homo sapiens, UniProt P07711). Nature of the data set: biochemical. The conditions noted are these: for inhibition at 100 µM: read-out: inhibition against CTSL (inhibition efficiency).
Data set [3] is described as follows: MTT cell viability assay in Huh7 cells. It is filed as cell-based. The conditions noted are these: human. (Tetrazolium assays rely on reduction of a dye to a coloured formazan, in cell work by metabolically active cells.)
The test system of data set [4] is SARS-CoV-2 pseudovirus. The experiment in a line: microbe, parasite or virus in culture. The conditions noted are these: Severe acute respiratory syndrome-related coronavirus, Huh-7, read-out: EC50, inhibition of SARS-CoV-2 pseudovirus infection.
The test system of data set [5] is SARS-CoV-2 pseudovirus. Nature of the data set: microbe, parasite or virus in culture. The conditions noted are these: Severe acute respiratory syndrome-related coronavirus, A549, read-out: EC50, inhibition of SARS-CoV-2 pseudovirus infection.
Data set [6] concerns SARS-CoV-2 pseudovirus.

One may read the CC50 as the concentration that lowers cell viability or growth by half. Low readings indicate greater toxicity to the cells, high ones lower toxicity to the cells. The IC50 is the concentration that gives 50% inhibition. The EC50 is the concentration needed to bring the measured effect to its halfway point. As a reminder, the inhibition is the drop in the measured response relative to a control, in per cent.

Read-outs that look alike come from different tables or passages of the source. Where a SMILES comes first, the peptide text is derived from it. [ ]: non-standard residue; d: D form. The star is where a group is joined. Nle = CCCC[CH](N)C(=O)O; Cbz = O=C(OCc1ccccc1)* Bounds are passed on as bounds.

CTSL protein prepared from human liver tissue, sequence (P07711 114-288 limits assumed): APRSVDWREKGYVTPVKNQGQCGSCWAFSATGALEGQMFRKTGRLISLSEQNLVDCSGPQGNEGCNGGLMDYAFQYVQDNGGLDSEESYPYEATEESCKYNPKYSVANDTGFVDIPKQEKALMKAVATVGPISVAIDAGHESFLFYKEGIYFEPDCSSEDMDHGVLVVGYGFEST
CTSL protein prepared from human liver tissue, sequence (P07711 292-333 limits assumed): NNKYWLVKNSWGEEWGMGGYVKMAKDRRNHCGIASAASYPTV

Regarding `CCCCCCCCCC(=O)N[C@@H](Cc1c[nH]c2ccccc12)C(=O)N[C@H](CC(N)=O)C(=O)N[C@@H](CC(=O)O)C(=O)N[C@@H]1C(=O)NCC(=O)N[C@@H](CCCN)C(=O)N[C@@H](CC(=O)O)C(=O)N[C@H](C)C(=O)N[C@@H](CC(=O)O)C(=O)NCC(=O)N[C@H](CO)C(=O)N[C@@H]([C@H](C)CC(=O)O)C(=O)N[C@@H](CC(=O)c2ccccc2N)C(=O)O[C@@H]1C` [daptomycin], the results for the 50% cytotoxic concentration (CC50) at 24 h in data set [1] and in data set [3] were over 5000 µM and 3570 µM, respectively. Besides, in data set [2], the IC50 is 7.87 µM.
On to `CC(=O)N[C@@H](CC(C)C)C(=O)N[C@@H](CC(C)C)C(=O)N[C@H](C=O)CCCNC(=N)N` [leupeptin hemisulfate], for which the concentration for a half-maximal effect (EC50) amounted to 39.3 µM in data set [4] and 4.26 µM in data set [5]. Moreover, the CC50 at 24 h in data set [1] and in data set [3] was over 5000 µM in each case. The compound further came in with a 50% inhibitory concentration (IC50) in data set [2] of under 0.008 µM. Further, in data set [2], the inhibition at 100 µM was over 90%.
Turning to `CCCCC(C=O)NC(=O)C(CC(C)C)NC(=O)C(CC(C)C)NC(C)=O` (stereo not drawn) [Mg-101] (Ac-Leu-Leu-[Nle]-aldehyde; configuration not given here), the concentration giving a half-maximal response (EC50) in data set [4] was determined as 3.12 µM; in data set [5], 1.15 µM. In addition, the 50% cytotoxic concentration (CC50) at 24 h in data set [1] was determined as 355 µM; in data set [3], 64.3 µM. The 50% inhibitory concentration (IC50) in data set [2] is under 0.008 µM. Besides, the inhibition at 100 µM in data set [2] was over 90%.
As for `CC1(C)CCC2=C(O1)c1ccccc1C(=O)C2=O` [beta-lapachone], in data set [6], the “SI (selectivity index, ratio of CC50 and EC50)” value worked out at 9.31. The EC50 in data set [4] turned out to be 5.09 µM. This compound gave an IC50 in data set [2] of over 100 µM. Besides, in data set [3], the CC50 at 24 h was 47.4 µM.
Take `CC(NC(=O)C(Cc1ccccc1)NC(=O)OCc1ccccc1)C(=O)CF` (centres unmarked) [Z-FA-FMK]: the EC50 in data set [4] was found to be 0.701 µM; in data set [5], 1.13 µM. In addition, the CC50 at 24 h was over 400 µM in data set [1] and 328 µM in data set [3]. The compound also showed an IC50 in data set [2] of 0.0549 µM. Further, the inhibition at 100 µM in data set [2] is over 90%.
With `CC(C)C[C@@H](C=O)NC(=O)[C@H](CC(C)C)NC(=O)[C@H](CC(C)C)NC(=O)OCc1ccccc1` [Mg-132] (Cbz-Leu-Leu-Leu-aldehyde), the concentration giving a half-maximal response (EC50) in data set [4] stood at 0.212 µM; in data set [5], 0.159 µM. The CC50 at 24 h in data set [1] was over 200 µM; in data set [3], 100 µM. For the same compound, in data set [2], the inhibition at 100 µM is over 90%.
In the case of `CCCC[C@@H](C=O)NC(=O)[C@H](CC(C)C)NC(=O)OCc1ccccc1` [calpeptin], the EC50 amounted to 29.8 µM in data set [4] and 34.8 µM in data set [5]. Moreover, the figures for the 50% cytotoxic concentration (CC50) at 24 h in data set [1] and in data set [3] were 595 µM and 116 µM, respectively. In addition, the inhibition at 100 µM in data set [2] is over 90%.
